Reference: US8623903B2, “Indolecarboxylic acid derivative having PGD2 receptor antagonistic activity” (Shionogi & Co., Ltd., priority 2005, dated 2014)

Experiments:
OVA asthma model of rat [1] = assay: OVA asthma model of rat: mucus-secretion (mucin in airway lavage fluid, ELISA); format: in vivo, Brown Norway (BN) Rats; settings: BN rats, 10 mg/kg p.o. once a day for three days, mucin in airway lavage fluid by ELISA vs control group
Experimental: (§1) Brown Norway (BN) Rats were sensitized by i.p. administration of 0.1 mg/mL of ovalbumin (OVA) and 1 mg of aluminum hydroxide gel. A solution of 1% OVA was aerosolized by ultrasonic nebulizer (NE-U17) and the rats were subjected to inhalation exposure of the aerosol for 30 minutes in an exposing chamber 12, 19, 26 and 33 days after the sensitization. One hour before the 4th exposure of the antigen, compounds of the present invention were administered in a dose of 10 mg/kg p.o. once a day for three days consecutively. In a control group, 0.5% of methyl cellulose was administered in place of the compound of the present invention.
(§2) After the measurement of increased hyperresponsive airway was completed, bronchoalveoli of the rats were washed with 5 mL of saline three times. Total cell number in the washings was counted by a hemacytometer under light microscope, and inhibition rates of infiltration of inflammatory cells against the control group were calculated. Further, mucin in the airway lavage fluid was measured by ELISA method using jacalin, a mucin-binding lectin, and the inhibition rates of mucus-secretion against the control group were calculated.

OVA asthma model of rat [2] = assay: OVA asthma model of rat: increased hyperresponsive airway (acetylcholine); format: in vivo, Brown Norway (BN) Rats; settings: BN rats, 10 mg/kg p.o. once a day for three days, vs control group, AUC of acetylcholine response curve
Experimental: as §1
Under pentobarbital anesthesia (80 mg/kg, i.p.), acetylcholine (3.9, 7.8, 15.6, 31.3, 62.5, 125, 250 and 500 μg/kg) was injected to jugular vein of the rats successively from a lower dose at intervals of 5 minutes three days after the fourth exposure to the antigen, and immediate contractile reaction of airways (an increase of insufflation pressure) was measured by a modified method of Konnzett & Rössler. Inhibition rate of increased hyperresponsive airway against the control group was calculated based on area under the curve (AUC) obtained from concentration-response curve of acetylcholine.

DP receptor [3] = target: T1, DP receptor (Homo sapiens (Human), UniProt Q13258); assay: Receptor binding assay, [3H]-PGD2, platelet membrane
T1 sequence (Q13258 whole entry): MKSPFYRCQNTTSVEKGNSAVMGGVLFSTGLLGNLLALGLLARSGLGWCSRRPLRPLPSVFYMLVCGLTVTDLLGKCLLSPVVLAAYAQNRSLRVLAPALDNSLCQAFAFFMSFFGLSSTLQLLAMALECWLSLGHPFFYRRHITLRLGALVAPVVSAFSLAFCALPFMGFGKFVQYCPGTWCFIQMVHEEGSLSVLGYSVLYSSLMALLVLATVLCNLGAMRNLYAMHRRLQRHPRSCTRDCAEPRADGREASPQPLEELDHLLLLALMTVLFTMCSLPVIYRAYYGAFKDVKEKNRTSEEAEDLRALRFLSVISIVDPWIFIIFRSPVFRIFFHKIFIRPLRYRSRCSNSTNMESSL
Experimental: 2) Receptor Binding Assay
A prepared WP was homogenated and a membrane fraction was collected with high-speed centrifugation. A compound of the present invention was added to the plate and [^3H]-PGD2 was also added. A platelet membrane, a protein concentration is 2 mg/mL, was added and mixed in the plate, and placed on ice for 2 hours. The reaction solution was transferred to a low protein-adsorptive filter and washed with a wash solution eight times using a cell harvester. After the final washing, water was removed sufficiently, and scintillator was added. DP inhibitory activity was investigated by measuring [^3H] by using Micro Beta.

OVA asthma model of rat [4] = assay: OVA asthma model of rat: infiltration of inflammatory cells in bronchoalveolar washings; format: in vivo, Brown Norway (BN) Rats; settings: BN rats, 10 mg/kg p.o. once a day for three days, total cell number in bronchoalveolar washings vs control group
Experimental: as §1, §2

DP receptor [5] = target: T1, DP receptor; assay: cAMP assay with washed platelets (DP inhibitory activity in vitro); format: cell-based; settings: 100 nM of PGD2, cAMP by HTRF, read-out: IC50 (50% DP-inhibitory concentration in the cAMP assay)
Experimental: 1) Preparation of Platelet and a Method of cAMP Assay
30 mL of peripheral blood was collected from a healthy volunteer using a syringe containing one ninth amount of 3.8% sodium citrate. After being centrifuged at 180 g for 10 minutes at room temperature, a supernatant was collected and used as Platelet Rich Plasma (PRP). The resulting PRP was washed with wash buffer and centrifuged three times (Washed Platelet: WP) and platelets were counted by a microcell counter. WP was added to a plate in amount of 1.5×10^8/assay and the plate was treated with 3-isobutyl-1-methylxanthin (IBMX; 0.5 mM) for 5 minutes. A reaction was initiated by adding 100 nM of PGD2 5 min after an addition of a test compound. The reaction was terminated with an addition of 1N hydrochloric acid after 2 minutes and the cells were destructed using 12% triton X-100. An amount of cAMP in the supernatant was assayed by Homogeneous Trangient Fluorescence (HTRF)

Row | SMILES | inhibition rate (%) mucus-secretion (OVA asthma model of rat [1]) [%] | inhibition rate (%) airway hyperresponsiveness (OVA asthma model of rat [2]) [%] | Ki (DP receptor [3]) [nM] | inhibition rate (%) infiltration of inflammatory cells (OVA asthma model of rat [4]) [%] | IC50 (DP receptor [5]) [nM]
1 | CC(C)Oc1ccc(S(=O)(=O)N2CCC(n3cc(CC(=O)O)c4ccccc43)CC2)cc1 [Compound I-1] | 52 | 43 | 7.7 | 58 | 4.7
2 | CC(C)Oc1ccc(S(=O)(=O)N2CCC(n3cc(CC(=O)O)c4cc(Cl)ccc43)CC2)cc1 [Compound I-5] |  |  | 22 |  | 4.1
3 | CCOc1ccc(S(=O)(=O)N2CCC(n3cc(CC(=O)O)c4cc(Cl)ccc43)CC2)cc1 [Compound I-6] |  |  |  |  | 4.8
4 | CC(C)Oc1ccc(S(=O)(=O)N2CCC(n3cc(CC(=O)O)c4cc(Cl)ccc43)C2)cc1 (centres unmarked) [Compound I-7] |  |  |  |  | 1.8
5 | CCOc1ccc(S(=O)(=O)N2CCC(n3cc(CC(=O)O)c4cc(Cl)ccc43)C2)cc1 (centres unmarked) [Compound I-8] |  |  |  |  | 4.9
6 | CC(C)Oc1ccc(S(=O)(=O)N2CCC(n3cc(CC(=O)O)c4ccc(Cl)cc43)CC2)cc1 [Compound I-9] |  |  |  |  | 2
7 | CCOc1ccc(S(=O)(=O)N2CCC(n3cc(CC(=O)O)c4ccc(Cl)cc43)CC2)cc1 [Compound I-10] |  |  |  |  | 6.9
8 | CC(C)Oc1ccc(S(=O)(=O)N2CCC(n3cc(CC(=O)O)c4ccc(Cl)cc43)C2)cc1 (centres unmarked) [Compound I-11] | 30 | 77 |  | 56 | 4.9
9 | CCOc1ccc(S(=O)(=O)N2CCC(n3cc(CC(=O)O)c4ccc(Cl)cc43)C2)cc1 (centres unmarked) [Compound I-12] |  |  |  |  | 6.9
10 | CC(C)Oc1ccc(S(=O)(=O)N2CCC(n3cc(CC(=O)O)c4cc(F)ccc43)CC2)cc1 [Compound I-14] |  |  | 5.6 |  | 2.2
11 | CC(C)Oc1ccc(S(=O)(=O)N2CCC(n3cc(CC(=O)O)c4ccc(F)cc43)CC2)cc1 [Compound I-16] |  |  |  |  | 1.3
12 | CC(C)Oc1ccc(S(=O)(=O)N2CC[C@@H](n3cc(CC(=O)O)c4ccccc43)C2)cc1 [Compound I-20] |  |  |  |  | 3.8
13 | CC(C)Oc1ccc(S(=O)(=O)N2CC[C@H](n3nc(CC(=O)O)c4cc(Cl)ccc43)C2)cc1 [Compound I-21] |  |  |  |  | 3
14 | CC(C)Oc1ccc(S(=O)(=O)N2CCC(n3cc(C(=O)O)c4ccccc43)CC2)cc1 [Compound I-23] | 72 | 46 | 1.4 | 79 | 1.6
15 | CC(C)Oc1ccc(S(=O)(=O)N2CC[C@@H](n3cc(CC(=O)O)c4ccc(Cl)cc43)C2)cc1 [Compound I-30] |  |  | 5.4 |  | 1.2
16 | CC(C)Oc1ccc(S(=O)(=O)N2CC[C@@H](n3cc(CC(=O)O)c4ccc(F)cc43)C2)cc1 [Compound I-31] |  |  | 4.3 |  | 2.9
17 | CC(C)Oc1ccc(S(=O)(=O)N2CC[C@@H](n3cc(C(=O)O)c4ccc(Cl)cc43)C2)cc1 [Compound I-32] |  |  |  |  | 7
